Where two headings read alike, the source gives them in different places.
Tests used:
subjects with cGVHD [1] = assay: Example 2: failure-free survival, overall survival, NRM, relapse; format: in vivo, human; details: for FFS at 6 mo (95% CI) / FFS at 12 mo (95% CI): mITT population
Protocol: (§1) All responses were assessed by the study site investigators.

subjects with cGVHD [2] = assay: Example 2: corticosteroid and other immunosuppressant reduction/discontinuation; format: in vivo, human
Protocol: as §1

[3] = Example 3: respiratory infections and overall survival; format: in vivo
Text: The median age at enrollment was 42.5 years (range, 26-77). Allogeneic HCT was predominantly performed with myeloablative conditioning (n=44, 75%) and peripheral blood stem cells (n=54, 92%) from an HLA-matched donor (n=53, 90%). The median time from cGVHD diagnosis to enrollment was 22 months (range, 1-161). […] Most subjects (n=39, 66%) had at least 4 organs involved at enrollment. The median number of prior lines of systemic therapy was 3 (range, 1-6). Overall cGVHD response to the line of systemic therapy prior to enrollment was partial response (n=12, 20%), stable disease (n=25, 42%), progressive disease (n=12, 20%) or unknown (n=10, 17%). […] At the time of analysis, 16 subjects remained on therapy. […] Thirty-one subjects (53%) experienced at least 1 respiratory infection (any grade) while on treatment, with 11 subjects experiencing 32 episodes. These infections were categorized as upper respiratory infections (n=33) or pneumonia (n=13). […] With a median follow-up among survivors of 27 months (range, 1.8-55), the 2-year overall survival is 82% (95% CI: 70, 90).

[4] = Example 1: plasma pharmacokinetics (Cmax, Tmax, AUC0-6 hr) of belumosudil and metabolites; format: in vivo, human; details: for Tmax: human, oral, read-out: Time of the Maximum Observed Plasma Concentration (Tmax), Median (Full Range); for Maximum Observed Plasma Concentration (Cmax), Geometric Mean (Geometric Coefficient of Variation) / Tmax: plasma
Protocol: Cmax was the maximum observed plasma concentration, obtained by a non-compartmental analysis. […] Timeframe: Cycles 1 and 2: pre-dose (0 hour), 1, 2, 3, 4, 5, and 6 hours post-dose on Day 1. […] Here, ‘number analyzed’=participants with available data for each specified category.
Tmax was defined as time to reach maximum observed plasma concentration, obtained by a non-compartmental analysis. […] Timeframe: Cycles 1 and 2: pre-dose (0 hour), 1, 2, 3, 4, 5, and 6 hours post-dose on Day 1. Analysis was performed on PK population. Here, ‘number analyzed’=participants with available data for each specified category.
AUC0-6 hr was defined as area under the plasma concentration versus time curve from time 0 to 6 hours post-dose, obtained by a non-compartmental analysis from the concentration-time data. […] Timeframe: Cycles 1 and 2: pre-dose (0 hour), 1, 2, 3, 4, 5, and 6 hours post-dose on Day 1. Analysis was performed on PK population. Here, ‘number analyzed’=participants with available data for each specified category.

subjects with cGVHD [5] = assay: Example 2 phase II randomized study: cGVHD response per 2014 NIH Consensus Criteria (best ORR, organ ORR, DOR, time to response); format: in vivo, human; details: for Best ORR: mITT
Protocol: as §1

[6] = 200 mg daily (n = 66), mITT population
[7] = 200 mg twice daily (n = 66), mITT population
[8] = Total (N = 132), mITT population
[9] = Cohort 1: Belumosudil 200 mg QD, Cycle 1 Day 1
[10] = Cohort 1: Belumosudil 200 mg QD, Cycle 2 Day 1
[11] = Cohort 2: Belumosudil 200 mg BID, Cycle 1 Day 1
[12] = Cohort 2: Belumosudil 200 mg BID, Cycle 2 Day 1
[13] = Cohort 3: Belumosudil 400 mg QD, Cycle 1 Day 1
[14] = Cohort 3: Belumosudil 400 mg QD, Cycle 2 Day 1
[15] = 200 mg BID (n = 66), 42 with organ involved
[16] = 200 mg BID (n = 66), 49 with organ involved
[17] = 200 mg QD (n = 66), 19 with organ involved
[18] = Total (N = 132), 100 with organ involved

SMILES: CC(C)NC(=O)COc1cccc(-c2nc(Nc3ccc4[nH]ncc4c3)c3ccccc3n2)c1 [Belumosudil, 2-{3-[4-(1H-indazol-5-ylamino)-2-quinazolinyl]phenoxy}-N-(propan-2-yl) acetamide]
- FFS at 6 mo (95% CI) (subjects with cGVHD [1]; 200 mg daily (n = 66)): 73 (61-83) %
- FFS at 12 mo (95% CI) (subjects with cGVHD [1]; 200 mg daily (n = 66)): 57 (44-68) %
- FFS at 6 mo (95% CI) (subjects with cGVHD [1]; 200 mg twice daily (n = 66)): 76 (63-84) %
- FFS at 12 mo (95% CI) (subjects with cGVHD [1]; 200 mg twice daily (n = 66)): 56 (43-67) %
- Overall FFS rate at 12 months (subjects with cGVHD [1]; 95% CI, 47-64): 56%
- Overall FFS rate at 6 months (subjects with cGVHD [1]; 95% CI, 66-81): 75%
- 2-year OS rate (subjects with cGVHD [1]; 95% CI, 82-93): 89%
- Failure event: initiation of a new systemic cGVHD therapy (subjects with cGVHD [1]; in vivo): 38%
- Relapse rate (subjects with cGVHD [1]; in vivo): 3%
- Mean change in CS dose from baseline, Nonresponder (subjects with cGVHD [2]; 200 mg daily): −22%
- Mean change in CS dose from baseline, Responder (subjects with cGVHD [2]; 200 mg daily): −49%
- CS discontinuation (subjects with cGVHD [2]; [6]): 13 (20) n (%)
- Mean change in CS dose from baseline, Overall (subjects with cGVHD [2]; [6]): −43%
- Median CS reduction from baseline to greatest reduction (subjects with cGVHD [2]; [6]): 38%
- Proportion with CS reduction (subjects with cGVHD [2]; [6]): 42 (64) n (%)
- Mean change in CS dose from baseline, Nonresponder (subjects with cGVHD [2]; 200 mg twice daily): −10%
- Mean change in CS dose from baseline, Responder (subjects with cGVHD [2]; 200 mg twice daily): −58%
- Mean change in CS dose from baseline, Overall (subjects with cGVHD [2]; [7]): −48%
- Median CS reduction from baseline to greatest reduction (subjects with cGVHD [2]; [7]): 50%
- Mean change in CS dose from baseline, Nonresponder (subjects with cGVHD [2]; Total): −16%
- Mean change in CS dose from baseline, Responder (subjects with cGVHD [2]; Total): −54%
- Mean change in CS dose from baseline, Overall (subjects with cGVHD [2]; [8]): −45%
- Median CS reduction from baseline to greatest reduction (subjects with cGVHD [2]; [8]): 50%
- Subjects who discontinued CNI therapy (subjects with cGVHD [2]; in vivo): 22%
- Subjects who discontinued mycophenolate mofetil (subjects with cGVHD [2]; in vivo): 21%
- Subjects who discontinued sirolimus (subjects with cGVHD [2]; in vivo): 20%
- Mean corticosteroid dose reduction (subjects with cGVHD [2]; mITT): 45%
- Mean corticosteroid dose reduction (subjects with cGVHD [2]; responders): 54%
- Subjects with at least 1 respiratory infection (any grade) on treatment ([3]; 59 BOS subjects): 53%
- 2-year overall survival ([3]; 95% CI: 70, 90): 82%
- Area Under the Plasma Concentration Versus Time Curve From Time 0 to 6 Hours Post-dose (AUC0-6 hr), Geometric Mean (Geometric Coefficient of Variation) [4, 9]: 8350 hours*nanograms per milliliter
- Maximum Observed Plasma Concentration (Cmax), Geometric Mean (Geometric Coefficient of Variation) [4, 9]: 2500 (60.1%) nanograms per milliliter
- Area Under the Plasma Concentration Versus Time Curve From Time 0 to 6 Hours Post-dose (AUC0-6 hr), Geometric Mean (Geometric Coefficient of Variation) [4, 10]: 7090 (95.9%) hours*nanograms per milliliter
- Maximum Observed Plasma Concentration (Cmax), Geometric Mean (Geometric Coefficient of Variation) [4, 10]: 2020 (101%) nanograms per milliliter
- Area Under the Plasma Concentration Versus Time Curve From Time 0 to 6 Hours Post-dose (AUC0-6 hr), Geometric Mean (Geometric Coefficient of Variation) [4, 11]: 4960 hours*nanograms per milliliter
- Maximum Observed Plasma Concentration (Cmax), Geometric Mean (Geometric Coefficient of Variation) [4, 11]: 1400 (98.5%) nanograms per milliliter
- Area Under the Plasma Concentration Versus Time Curve From Time 0 to 6 Hours Post-dose (AUC0-6 hr), Geometric Mean (Geometric Coefficient of Variation) [4, 12]: 7190 (115%) hours*nanograms per milliliter
- Maximum Observed Plasma Concentration (Cmax), Geometric Mean (Geometric Coefficient of Variation) [4, 12]: 1890 (120%) nanograms per milliliter
- Area Under the Plasma Concentration Versus Time Curve From Time 0 to 6 Hours Post-dose (AUC0-6 hr), Geometric Mean (Geometric Coefficient of Variation) [4, 13]: 11500 hours*nanograms per milliliter
- Maximum Observed Plasma Concentration (Cmax), Geometric Mean (Geometric Coefficient of Variation) [4, 13]: 2960 (69.7%) nanograms per milliliter
- Area Under the Plasma Concentration Versus Time Curve From Time 0 to 6 Hours Post-dose (AUC0-6 hr), Geometric Mean (Geometric Coefficient of Variation) [4, 14]: 12000 hours*nanograms per milliliter
- Maximum Observed Plasma Concentration (Cmax), Geometric Mean (Geometric Coefficient of Variation) [4, 14]: 3270 (63.0%) nanograms per milliliter
- Tmax ([4]; 200 mg, Cohort 1: Belumosudil 200 mg QD, Cycle 1 Day 1): 2.12 h
- Tmax ([4]; 200 mg, Cohort 1: Belumosudil 200 mg QD, Cycle 2 Day 1): 2.53 h
- Tmax ([4]; 200 mg, Cohort 2: Belumosudil 200 mg BID, Cycle 1 Day 1): 3.43 h
- Tmax ([4]; 200 mg, Cohort 2: Belumosudil 200 mg BID, Cycle 2 Day 1): 2.47 h
- Tmax ([4]; 400 mg, Cohort 3: Belumosudil 400 mg QD, Cycle 1 Day 1): 3.03 h
- Tmax ([4]; 400 mg, Cohort 3: Belumosudil 400 mg QD, Cycle 2 Day 1): 2.66 h
- PR, Liver (subjects with cGVHD [5]; 200 mg BID (n = 66), 4 with organ involved): 0 n (%)
- PR, Upper GI (subjects with cGVHD [5]; 200 mg BID (n = 66), 10 with organ involved): 0 n (%)
- PR, Esophagus (subjects with cGVHD [5]; 200 mg BID (n = 66), 12 with organ involved): 0 n (%)
- CR, Mouth (subjects with cGVHD [5]; [15]): 17 (41) n (%)
- ORR, Mouth (subjects with cGVHD [5]; [15]): 24 (57) n (%)
- CR, Eyes (subjects with cGVHD [5]; [16]): 6 (12) n (%)
- ORR, Joints and fascia (subjects with cGVHD [5]; [16]): 33 (67) n (%)
- PR, Skin (subjects with cGVHD [5]; 200 mg BID (n = 66), 55 with organ involved): 13 (24) n (%)
- PR, Lower GI (subjects with cGVHD [5]; 200 mg QD (n = 66), 6 with organ involved): 0 n (%)
- ORR, Upper GI (subjects with cGVHD [5]; 200 mg QD (n = 66), 13 with organ involved): 8 (62) n (%)
- CR, Esophagus (subjects with cGVHD [5]; [17]): 9 (47) n (%)
- PR, Esophagus (subjects with cGVHD [5]; [17]): 0 n (%)
- CR, responses occurring within 6 mo of treatment (subjects with cGVHD [5]; [6]): 2 (3) n (%)
- CR, responses occurring within 12 mo of treatment (subjects with cGVHD [5]; [6]): 4 (6) n (%)
- ORR for responses occurring within 6 mo of treatment (subjects with cGVHD [5]; [6]): 47 (71) n (%)
- Best ORR (subjects with cGVHD [5]; 200 mg daily): 74%
- CR, responses occurring within 6 mo of treatment (subjects with cGVHD [5]; [7]): 1 (2) n (%)
- CR, responses occurring within 12 mo of treatment (subjects with cGVHD [5]; [7]): 2 (3) n (%)
- ORR (subjects with cGVHD [5]; [7]): 51 (77) n (%)
- ORR for responses occurring within 12 mo of treatment (subjects with cGVHD [5]; [7]): 50 (76) n (%)
- PR, responses occurring within 6 mo of treatment (subjects with cGVHD [5]; [7]): 47 (71) n (%)
- PR, responses occurring within 12 mo of treatment (subjects with cGVHD [5]; [7]): 48 (73) n (%)
- Best ORR (subjects with cGVHD [5]; 200 mg twice daily): 77%
- Median increase in FEV1, lung CR based on normalization of FEV1 (subjects with cGVHD [5]; 3 subjects, range, 18-25): 23%
- PR, Esophagus (subjects with cGVHD [5]; Total (N = 132), 31 with organ involved): 0 n (%)
- CR, Eyes (subjects with cGVHD [5]; Total (N = 132), 97 with organ involved): 14 (14) n (%)
- CR, Joints and fascia (subjects with cGVHD [5]; [18]): 20 (20) n (%)
- ORR, Joints and fascia (subjects with cGVHD [5]; [18]): 71 (71) n (%)
- PR, Joints and fascia (subjects with cGVHD [5]; [18]): 51 (51) n (%)
- CR, Skin (subjects with cGVHD [5]; Total (N = 132), 110 with organ involved): 18 (16) n (%)
- CR, responses occurring within 6 mo of treatment (subjects with cGVHD [5]; [8]): 3 (2) n (%)
- CR, responses occurring within 12 mo of treatment (subjects with cGVHD [5]; [8]): 6 (5) n (%)
- PR, responses occurring within 6 mo of treatment (subjects with cGVHD [5]; [8]): 92 (70) n (%)
- PR, responses occurring within 12 mo of treatment (subjects with cGVHD [5]; [8]): 93 (71) n (%)
- Best ORR in subjects refractory to their last lines of therapy (subjects with cGVHD [5]; in vivo): 75%
- ORR, prior ruxolitinib therapy subgroup (subjects with cGVHD [5]; pooled arms, n=38): 68%
- ORR, prior ibrutinib therapy subgroup (subjects with cGVHD [5]; pooled arms, n=46): 74%
- Median increase in FEV1, all subjects achieving lung PR (subjects with cGVHD [5]; range, 0-15): 10%
- Overall median time to response (subjects with cGVHD [5]; range, 4-66): 5 weeks
- Median DOR (subjects with cGVHD [5]; responder population): 54 weeks

Source: patent US20250255867A1 (Kadmon Corporation, LLC, priority 2022, published 2025)
